Assay results: patent US10800782B2, “Inhibitors of cellular metabolic processes” (Agios Pharmaceuticals, Inc., priority 2016, dated 2020)

The molecules below were run against T1, MAT2A (Homo sapiens, UniProt P31153) (assay: MAT2A biochemical assay (colorimetric inorganic phosphate detection, PiColorLock)). Details: recombinant His6-tagged MAT2A 1 μg/ml; 60 minutes preincubation at 25° C.; L-Met 80 μM, ATP 100 μM; 60 minutes reaction; read at 623 nm; read-out: MAT2A Inhibition Score.
T1 construct: His6; made in house; host or cells: SF9 insect cells
Method: In the reaction catalyzed by MAT2A enzyme, L-Met and ATP were converted to SAM, inorganic phosphate, and inorganic diphosphate. […] The concentration of malachite green phosphomolybdate produced in the detection reaction is thus directly related to the quantity of product produced by the MAT2A enzyme. Multiple commercial kits exist for this method of phosphate detection and quantification, such as PiColorLock Gold (Innova Biosciences). Typical reaction was performed in 50 μl final volume, containing buffer (Tris, pH 8.0, 50 mM KCl, 15 mM MgCl2, 300 uM EDTA, bovine serum albumin at 0.005% w/v) and 1 μg/ml MAT2A. Compounds were added in 1 μl of DMSO at the desired concentration; a typical dose response curve contained ten points with three-fold dilution between compound concentrations. […] The reaction was allowed to proceed for 60 minutes at room temperature then halted by the addition of 13 μl of PiColor Lock reagent. After a further 5 minutes of incubation at room temperature, […] of PiColor Stabilizer was added and the reactions were further incubated at 25° C. for 25 minutes. […] Recombinant MAT2A protein was expressed in SF9 insect cells and purified by metal chelate affinity chromatography, using methods well known in the art. After expression of His6-tagged MAT2A cells were disrupted by 4 passes through an M-Yl 10 Micro fluidizer (Microfluidics) set to 500 psi, and then centrifuged at 22,000 rcf for 20 min at 4° C. The supernatant was harvested and loaded at 15 cm/h on a Histrap FF 5*1 ml column (GE) which was equilibrated with 50 mM Tris, 500 mM NaCl, pH7.4. Host cell contaminants were removed by washing the column with equilibration buffer followed by equilibration buffer containing 20 mM imidazole and 60 mM imidazole to baseline. MAT2A protein was eluted by the addition of buffer containing 250 mM imidazole, dialized into 50 mM NaCl, 50 mM Tris, pH 7.4, flash frozen in liquid nitrogen, and stored at −80° C. until use.

T1 sequence (P31153 whole entry): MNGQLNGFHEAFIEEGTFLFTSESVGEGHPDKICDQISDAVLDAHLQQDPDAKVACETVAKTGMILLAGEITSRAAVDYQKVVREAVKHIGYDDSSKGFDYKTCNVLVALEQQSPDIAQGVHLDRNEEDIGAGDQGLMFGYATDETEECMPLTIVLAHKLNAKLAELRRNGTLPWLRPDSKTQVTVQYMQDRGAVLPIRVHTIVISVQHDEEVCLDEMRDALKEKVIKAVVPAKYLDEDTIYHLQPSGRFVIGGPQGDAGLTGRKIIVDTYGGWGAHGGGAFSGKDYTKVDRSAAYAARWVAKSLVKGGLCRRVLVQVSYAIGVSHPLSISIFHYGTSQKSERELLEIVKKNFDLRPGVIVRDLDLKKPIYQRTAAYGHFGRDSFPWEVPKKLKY

SMILES	IC50 [nM]
CNc1ncnc(Nc2[nH]c3c(-c4ccccc4)c(-c4ccccc4)nn3c(=O)c2-c2ccc(OC)cc2)n1 [Compound 135, 6-(4-methoxyphenyl)-5-((4-(methylamino)-1,3,5-triazin-2-yl)amino)-2,3-diphenylpyrazolo[1,5-a]pyrimidin-7(4H)-one]	< 100
COc1ccc(-c2c(Nc3cc(OC)[nH]n3)[nH]c3c(-c4ccccc4)c(-c4ccccc4)nn3c2=O)cc1 [Compound 183, 5-((5-methoxy-1H-pyrazol-3-yl)amino)-6-(4-methoxyphenyl)-2,3-diphenylpyrazolo[1,5-a]pyrimidin-7(4H)-one]	< 100
COc1ccc(-c2c(Nc3ccnc(O)n3)[nH]c3c(-c4ccccc4)c(-c4ccccc4)nn3c2=O)cc1 [Compound 119, 5-(2-hydroxypyrimidin-4-ylamino)-6-(4-methoxyphenyl)-2,3-diphenyl-pyrazolo[1,5-a]pyrimidin-7(4H)-one]	< 100
COc1ccc(-c2c(C)[nH]c3c(-c4cc[nH]c4)c(-c4ccccc4)nn3c2=O)cc1 [Compound 220, 6-(4-methoxyphenyl)-5-methyl-2-phenyl-3-(1H-pyrrol-3-yl)pyrazolo[1,5-a]pyrimidin-7(4H)-one]	< 100
O=c1c(-c2ccc(O)cc2)c(Nc2cc[nH]n2)[nH]c2c(-c3ccccc3)c(-c3ccccc3)nn12 [Compound 193, 5-((1H-pyrazol-3-yl)amino)-6-(4-hydroxyphenyl)-2,3-diphenylpyrazolo[1,5-a]pyrimidin-7(4H)-one]	< 100
COc1ccc(-c2c(Nc3ccon3)[nH]c3c(-c4ccccc4)c(-c4ccccc4)nn3c2=O)cc1 [Compound 138, 5-(isoxazol-3-ylamino)-6-(4-methoxyphenyl)-2,3-diphenylpyrazolo[1,5-a]pyrimidin-7(4H)-one]	< 100
COc1ccc(-c2c(Nc3nnc(O)s3)[nH]c3c(-c4ccccc4)c(-c4ccccc4)nn3c2=O)cc1 [Compound 146, 5-((5-hydroxy-1,3,4-thiadiazol-2-yl)amino)-6-(4-methoxyphenyl)-2,3-diphenylpyrazolo[1,5-a]pyrimidin-7(4H)-one]	< 100
NCc1[nH]c2c(C3=CCCCC3)c(-c3ccccc3)nn2c(=O)c1-c1ccc2nccnc2c1 [Compound 234, 5-(aminomethyl)-3-(cyclohex-1-en-1-yl)-2-phenyl-6-(quinoxalin-6-yl)pyrazolo[1,5-a]pyrimidin-7(4H)-one]	< 100
COc1ccc(-c2c(C)[nH]c3c(-c4ccccc4)c(-c4ccccc4)nn3c2=O)cc1 [Compound 209, 6-(4-methoxyphenyl)-5-methyl-2,3-diphenylpyrazolo[1,5-a]pyrimidin-7(4H)-one]	< 100
O=c1c(-c2ccc3ncccc3c2)c(Nc2cc[nH]n2)[nH]c2c(-c3ccccc3)c(-c3ccccc3)nn12 [Compound 187, 5-((1H-pyrazol-3-yl)amino)-2,3-diphenyl-6-(quinolin-6-yl)pyrazolo[1,5-a]pyrimidin-7(4H)-one]	< 100
COc1ccc(-c2c(Nc3ccccn3)[nH]c3c(C4=CCCCC4)c(-c4ccccn4)nn3c2=O)cc1 [Compound 203, 3-(cyclohex-1-en-1-yl)-6-(4-methoxyphenyl)-2-(pyridin-2-yl)-5-(pyridin-2-ylamino)pyrazolo[1,5-a]pyrimidin-7(4H)-one]	< 100
COc1ccc(-c2c(Nc3cc(C#N)ccn3)[nH]c3c(-c4ccccc4)c(-c4ccccc4)nn3c2=O)cc1 [Compound 114, 2-(6-(4-methoxyphenyl)-7-oxo-2,3-diphenyl-4,7-dihydropyrazolo[1,5-a]pyrimidin-5-ylamino)isonicotinonitrile]	< 100
COc1ccc(-c2c(Nc3ccc(OC)nn3)[nH]c3c(-c4ccccc4)c(-c4ccccc4)nn3c2=O)cc1 [Compound 124, 6-(4-methoxyphenyl)-5-((6-methoxypyridazin-3-yl)amino)-2,3-diphenylpyrazolo[1,5-a]pyrimidin-7(4H)-one]	< 100
COc1ccc(-c2nn3c(=O)c(-c4ccc5ncccc5c4)c(C)[nH]c3c2-c2ccccc2)cc1 [Compound 243, 2-(4-methoxyphenyl)-5-methyl-3-phenyl-6-(quinolin-6-yl)pyrazolo[1,5-a]pyrimidin-7(4H)-one]	1000 to 10000
Cc1nc2ccc(-c3c(Nc4ccccn4)[nH]c4c(-c5ccccc5)c(-c5ccccc5)nn4c3=O)cc2s1 [Compound 196, 6-(2-methylbenzo[d]thiazol-6-yl)-2,3-diphenyl-5-(pyridin-2-ylamino)pyrazolo[1,5-a]pyrimidin-7(4H)-one]	< 100
O=c1c(-c2ccc3ncccc3c2)c(CO)[nH]c2c(C3=CCCCC3)c(-c3ccccc3)nn12 [Compound 230, 3-(cyclohex-1-en-1-yl)-5-(hydroxymethyl)-2-phenyl-6-(quinolin-6-yl)pyrazolo[1,5-a]pyrimidin-7(4H)-one]	< 100
COc1ccc(-c2c(Nc3cnc(N)cn3)[nH]c3c(C4=CCCCC4)c(-c4ccccc4)nn3c2=O)cc1 [Compound 160, 5-((5-aminopyrazin-2-yl)amino)-3-(cyclohex-1-en-1-yl)-6-(4-methoxyphenyl)-2-phenylpyrazolo[1,5-a]pyrimidin-7(4H)-one]	< 100
COc1ccc(-c2c(Nc3cc[nH]n3)[nH]c3c(-c4ccccc4)c(-c4ccccc4)nn3c2=O)cc1 [Compound 182, 5-((1H-pyrazol-3-yl)amino)-6-(4-methoxyphenyl)-2,3-diphenylpyrazolo[1,5-a]pyrimidin-7(4H)-one]	< 100

Now from value to molecule:

IC50 [nM]	SMILES
100 to 1000	Cc1[nH]c2c(-c3ccccc3)c(-c3ccccc3)nn2c(=O)c1C1=CCC(=O)CC1 [Compound 336, 5-methyl-6-(4-oxocyclohex-1-en-1-yl)-2,3-diphenylpyrazolo[1,5-a]pyrimidin-7(4H)-one]
100 to 1000	Cc1[nH]c2c(N3CCCCC3)c(-c3ccccc3)nn2c(=O)c1-c1ccncc1 [Compound 304, 5-methyl-2-phenyl-3-(piperidin-1-yl)-6-(pyridin-4-yl)pyrazolo[1,5-a]pyrimidin-7(4H)-one]
< 100	O=c1c(-c2ccc3ncccc3c2)c[nH]c2c(-c3ccccc3)c(-c3ccccc3)nn12 [Compound 244, 2,3-diphenyl-6-(quinolin-6-yl)pyrazolo[1,5-a]pyrimidin-7(4H)-one]
< 100	Cc1[nH]c2c(N3CCCCC3)c(-c3ccccc3)nn2c(=O)c1-c1ccc2[nH]c(N)nc2c1 [Compound 268, 6-(2-amino-1H-benzo[d]imidazol-5-yl)-5-methyl-2-phenyl-3-(piperidin-1-yl)pyrazolo[1,5-a]pyrimidin-7(4H)-one]
100 to 1000	O=C1CN(Cc2[nH]c3c(-c4ccccc4)c(-c4ccccc4)nn3c(=O)c2-c2ccc3ncccc3c2)C(=O)N1 [Compound 323, 1-((7-oxo-2,3-diphenyl-6-(quinolin-6-yl)-4,7-dihydropyrazolo[1,5-a]pyrimidin-5-yl)methyl)imidazolidine-2,4-dione]
1000 to 10000	Cc1[nH]c2c(N3CCCCC3)c(-c3ccccc3)nn2c(=O)c1-c1cscn1 [Compound 310, 5-methyl-2-phenyl-3-(piperidin-1-yl)-6-(thiazol-4-yl)pyrazolo[1,5-a]pyrimidin-7(4H)-one]
100 to 1000	O=C(NCCO)c1[nH]c2c(-c3ccccc3)c(-c3ccccc3)nn2c(=O)c1-c1ccc2ncccc2c1 [Compound 329, N-(2-hydroxyethyl)-7-oxo-2,3-diphenyl-6-(quinolin-6-yl)-4,7-dihydropyrazolo[1,5-a]pyrimidine-5-carboxamide]
< 100	COc1ccc(-c2c(O)n(C)c3c(-c4ccccc4)c(-c4ccccc4)nn3c2=O)cc1 [Compound 274, 5-hydroxy-6-(4-methoxyphenyl)-4-methyl-2,3-diphenylpyrazolo[1,5-a]pyrimidin-7(4H)-one]
1000 to 10000	O=C1CNC(=O)N1Cc1[nH]c2c(-c3ccccc3)c(-c3ccccc3)nn2c(=O)c1-c1ccc2ncccc2c1 [Compound 322, 3-((7-oxo-2,3-diphenyl-6-(quinolin-6-yl)-4,7-dihydropyrazolo[1,5-a]pyrimidin-5-yl)methyl)imidazolidine-2,4-dione]
< 100	COCn1c(-c2ccccc2)c(C2=CCCCC2)c2nc(C)c(-c3ccc(OC)cc3)c(=O)n21 [Compound 291, 3-cyclohexenyl-1-(methoxymethyl)-6-(4-methoxyphenyl)-5-methyl-2-phenylpyrazolo[1,5-a]pyrimidin-7(1H)-one]
1000 to 10000	COc1cc(-c2nn3c(=O)c(-c4ccc5ncccc5c4)c(C)[nH]c3c2-c2ccccc2)ccn1 [Compound 351, 2-(2-methoxypyridin-4-yl)-5-methyl-3-phenyl-6-(quinolin-6-yl)pyrazolo[1,5-a]pyrimidin-7(4H)-one]
1000 to 10000	Cc1[nH]c2c(-c3ccccc3)c(-c3ccnc(Cl)c3)nn2c(=O)c1-c1ccc2ncccc2c1 [Compound 350, 2-(2-chloropyridin-4-yl)-5-methyl-3-phenyl-6-(quinolin-6-yl)pyrazolo[1,5-a]pyrimidin-7(4H)-one]
